Assay results as given in patent US11834453B2, “Substituted pyrimido[5,4-d]pyrimidines as HER2 inhibitors” (Array BioPharma Inc., priority 2020, dated 2023).

Target: ErbB2 with Exon 20 YVMA insertion (HER2-YVMA) (Homo sapiens (Human), UniProt P04626, INS775YVMA)
Experiment: Cellular phosphorylation assay, constitutive ErbB2 phosphorylation (Y1196) in engineered NIH 3T3 cells, Assay 4
Type: cell-based
Conditions: not given
Summary of the method: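 Engineered NIH 3T3 cells expressing HER2-YVMA treated with compounds 1 h at 37 °C, then formaldehyde-fixed and methanol-permeabilized. pErbB2 Y1196 detected by in-cell infrared immunofluorescence, normalized to GAPDH. IC50 from the normalized curves.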

Sequence of ErbB2 with Exon 20 YVMA insertion (HER2-YVMA) (P04626 other isoform, or with tags, fused parts or gaps ins YVMA behind 775): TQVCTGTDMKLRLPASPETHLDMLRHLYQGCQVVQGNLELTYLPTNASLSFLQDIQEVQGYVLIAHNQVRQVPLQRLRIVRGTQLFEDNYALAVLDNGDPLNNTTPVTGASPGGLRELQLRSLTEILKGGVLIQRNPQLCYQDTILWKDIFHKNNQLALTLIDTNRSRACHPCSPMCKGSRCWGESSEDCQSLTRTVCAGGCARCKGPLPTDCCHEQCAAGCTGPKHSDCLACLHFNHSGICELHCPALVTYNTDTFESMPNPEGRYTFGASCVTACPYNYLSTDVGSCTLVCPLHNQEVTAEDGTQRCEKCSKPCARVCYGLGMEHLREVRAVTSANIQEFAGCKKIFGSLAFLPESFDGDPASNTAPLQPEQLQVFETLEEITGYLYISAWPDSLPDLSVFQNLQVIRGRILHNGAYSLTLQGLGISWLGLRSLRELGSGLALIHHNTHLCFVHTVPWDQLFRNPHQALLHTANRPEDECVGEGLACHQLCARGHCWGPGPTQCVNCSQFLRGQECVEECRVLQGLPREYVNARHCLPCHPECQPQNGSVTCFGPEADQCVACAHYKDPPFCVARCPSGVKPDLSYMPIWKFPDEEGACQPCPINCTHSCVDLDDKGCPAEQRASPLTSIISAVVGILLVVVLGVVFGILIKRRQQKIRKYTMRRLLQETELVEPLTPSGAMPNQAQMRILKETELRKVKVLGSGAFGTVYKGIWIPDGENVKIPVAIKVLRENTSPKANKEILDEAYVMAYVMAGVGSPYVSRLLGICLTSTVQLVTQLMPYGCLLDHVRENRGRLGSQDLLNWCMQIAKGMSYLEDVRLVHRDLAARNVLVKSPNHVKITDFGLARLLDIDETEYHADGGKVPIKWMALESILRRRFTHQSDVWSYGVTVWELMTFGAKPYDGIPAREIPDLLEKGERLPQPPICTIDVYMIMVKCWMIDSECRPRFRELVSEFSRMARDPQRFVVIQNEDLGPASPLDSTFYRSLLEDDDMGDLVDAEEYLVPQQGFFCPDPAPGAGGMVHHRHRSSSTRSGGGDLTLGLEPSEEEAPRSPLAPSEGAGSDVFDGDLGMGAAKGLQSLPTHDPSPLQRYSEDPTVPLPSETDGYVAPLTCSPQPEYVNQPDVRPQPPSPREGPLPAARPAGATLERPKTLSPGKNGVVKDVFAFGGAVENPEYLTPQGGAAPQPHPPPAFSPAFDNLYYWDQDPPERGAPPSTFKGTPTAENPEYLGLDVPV

SMILES	IC50 [nM]
Cc1cc(Nc2ncnc3cnc(N4CCC45COC5)nc23)ccc1Oc1ccn2ncnc2c1 [Example 369]	151
Cc1cc(Nc2ncnc3cnc(N4CC[C@H]4C(C)(C)O)nc23)ccc1Oc1ccn2ncnc2c1 [Example 370]	2500
Cc1cc(Nc2ncnc3cnc(N4CCC[C@@H]4C(C)(C)O)nc23)ccc1Oc1ccc2c(c1)ncn2C [Example 371]	127
Cc1cc(Nc2ncnc3cnc(N(C)CC(F)F)nc23)ccc1Oc1ccn2ncnc2c1 [Example 372]	153
Cc1cc(Nc2ncnc3cnc(N4CC5(CCOC5)C4)nc23)ccc1Oc1ccn2ncnc2c1 [Example 373]	2480
Cc1cc(Nc2ncnc3cnc(N4CC[C@]45CCOC5)nc23)ccc1Oc1ccn2ncnc2c1 [Example 374]	216
Cc1cc(Nc2ncnc3cnc(N4CC[C@]5(CCO5)C4)nc23)ccc1Oc1ccc2c(c1)ncn2C [Example 375]	14.9
Clc1cc(Nc2ncnc3cnc(N4CC[C@@H]5COC[C@H]54)nc23)ccc1Oc1ccn2ncnc2c1 [Example 376]	30.8
Clc1cc(Nc2ncnc3cnc(N4CCC5COCC54)nc23)ccc1Oc1ccn2ncnc2c1 (stereo not shown) [Example 377]	58.2
Cc1cc(Nc2ncnc3cnc(N4CCC4)nc23)ccc1Oc1ccn2ncnc2c1 [Example 379]	356
Cc1cc(Nc2ncnc3cnc(N4C[C@@H]5[C@H](C4)[C@H]4CC[C@@H]5O4)nc23)ccc1Oc1ccc2c(c1)ncn2C [Example 380]	43.2
Cc1cc(Nc2ncnc3cnc(N(C)[C@H]4CCOC4)nc23)ccc1Oc1ccn2ncnc2c1 [Example 381]	265
Cc1cc(Nc2ncnc3cnc(N4CCOC5CC54)nc23)ccc1Oc1ccn2ncnc2c1 (stereo not shown) [Example 382]	397
Clc1cc(Nc2ncnc3cnc(N4CC5CCC(C4)O5)nc23)ccc1Oc1ccn2ncnc2c1 [Example 383]	4140

Target: ErbB2 insYVMA (HER2-YVMA, SEQ ID NO: 2) (Homo sapiens, UniProt P04626, INS775YVMA/P1170A)
Sequence (P04626 with tags, fused parts or gaps INS775YVMA/P1170A limits assumed): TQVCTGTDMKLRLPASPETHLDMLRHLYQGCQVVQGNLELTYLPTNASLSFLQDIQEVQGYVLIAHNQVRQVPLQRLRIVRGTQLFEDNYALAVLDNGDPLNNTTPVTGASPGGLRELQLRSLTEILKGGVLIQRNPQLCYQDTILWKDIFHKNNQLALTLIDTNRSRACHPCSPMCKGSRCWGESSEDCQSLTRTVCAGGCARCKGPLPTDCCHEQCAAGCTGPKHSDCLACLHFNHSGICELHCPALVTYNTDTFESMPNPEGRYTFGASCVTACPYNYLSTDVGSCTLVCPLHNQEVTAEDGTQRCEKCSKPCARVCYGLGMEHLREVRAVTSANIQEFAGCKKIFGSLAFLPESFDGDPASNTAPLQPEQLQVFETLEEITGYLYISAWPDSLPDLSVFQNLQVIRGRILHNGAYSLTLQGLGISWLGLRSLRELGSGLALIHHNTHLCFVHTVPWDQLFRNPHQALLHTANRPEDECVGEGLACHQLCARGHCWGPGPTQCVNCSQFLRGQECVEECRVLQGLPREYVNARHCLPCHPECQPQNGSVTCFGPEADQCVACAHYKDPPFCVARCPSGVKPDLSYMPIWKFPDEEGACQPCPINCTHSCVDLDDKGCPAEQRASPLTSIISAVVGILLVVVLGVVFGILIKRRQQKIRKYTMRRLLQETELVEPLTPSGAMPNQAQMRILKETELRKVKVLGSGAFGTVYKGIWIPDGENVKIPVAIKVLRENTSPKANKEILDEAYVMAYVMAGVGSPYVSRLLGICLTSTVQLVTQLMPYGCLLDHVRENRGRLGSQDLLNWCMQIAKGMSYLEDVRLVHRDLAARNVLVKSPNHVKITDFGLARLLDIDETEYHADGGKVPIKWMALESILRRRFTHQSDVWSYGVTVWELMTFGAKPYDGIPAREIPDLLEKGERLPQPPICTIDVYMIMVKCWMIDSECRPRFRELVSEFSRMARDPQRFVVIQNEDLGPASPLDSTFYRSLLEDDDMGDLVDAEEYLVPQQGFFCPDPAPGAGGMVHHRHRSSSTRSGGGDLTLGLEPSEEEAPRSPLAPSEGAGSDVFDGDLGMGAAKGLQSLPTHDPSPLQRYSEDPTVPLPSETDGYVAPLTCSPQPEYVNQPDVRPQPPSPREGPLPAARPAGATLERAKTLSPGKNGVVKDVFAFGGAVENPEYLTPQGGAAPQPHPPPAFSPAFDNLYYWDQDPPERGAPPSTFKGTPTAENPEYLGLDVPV
Experiment: biochemical
Conditions: ErbB2 insYVMA enzyme assay; read-out: Assay 1 IC50

SMILES	IC50 [nM]
Cc1cc(Nc2ncnc3cnc(N4CCC45COC5)nc23)ccc1Oc1ccn2ncnc2c1 [Example 369]	7.3
Cc1cc(Nc2ncnc3cnc(N4CC[C@H]4C(C)(C)O)nc23)ccc1Oc1ccn2ncnc2c1 [Example 370]	57.9
Cc1cc(Nc2ncnc3cnc(N4CCC[C@@H]4C(C)(C)O)nc23)ccc1Oc1ccc2c(c1)ncn2C [Example 371]	67
Cc1cc(Nc2ncnc3cnc(N(C)CC(F)F)nc23)ccc1Oc1ccn2ncnc2c1 [Example 372]	15.1
Cc1cc(Nc2ncnc3cnc(N4CC5(CCOC5)C4)nc23)ccc1Oc1ccn2ncnc2c1 [Example 373]	81.6
Cc1cc(Nc2ncnc3cnc(N4CC[C@]45CCOC5)nc23)ccc1Oc1ccn2ncnc2c1 [Example 374]	14.3
Cc1cc(Nc2ncnc3cnc(N4CC[C@]5(CCO5)C4)nc23)ccc1Oc1ccc2c(c1)ncn2C [Example 375]	22.8
Clc1cc(Nc2ncnc3cnc(N4CC[C@@H]5COC[C@H]54)nc23)ccc1Oc1ccn2ncnc2c1 [Example 376]	13.3
Clc1cc(Nc2ncnc3cnc(N4CCC5COCC54)nc23)ccc1Oc1ccn2ncnc2c1 (stereo not shown) [Example 377]	7.6
Cc1cc(Nc2ncnc3cnc(N4CCC4)nc23)ccc1Oc1ccn2ncnc2c1 [Example 379]	25.7
Cc1cc(Nc2ncnc3cnc(N4C[C@@H]5[C@H](C4)[C@H]4CC[C@@H]5O4)nc23)ccc1Oc1ccc2c(c1)ncn2C [Example 380]	46.4
Cc1cc(Nc2ncnc3cnc(N(C)[C@H]4CCOC4)nc23)ccc1Oc1ccn2ncnc2c1 [Example 381]	15.4
Cc1cc(Nc2ncnc3cnc(N4CCOC5CC54)nc23)ccc1Oc1ccn2ncnc2c1 (stereo not shown) [Example 382]	34.5
Clc1cc(Nc2ncnc3cnc(N4CC5CCC(C4)O5)nc23)ccc1Oc1ccn2ncnc2c1 [Example 383]	56.3

Target: ErbB2 WT (Homo sapiens (Human), UniProt P04626)
Sequence (P04626 23-1255): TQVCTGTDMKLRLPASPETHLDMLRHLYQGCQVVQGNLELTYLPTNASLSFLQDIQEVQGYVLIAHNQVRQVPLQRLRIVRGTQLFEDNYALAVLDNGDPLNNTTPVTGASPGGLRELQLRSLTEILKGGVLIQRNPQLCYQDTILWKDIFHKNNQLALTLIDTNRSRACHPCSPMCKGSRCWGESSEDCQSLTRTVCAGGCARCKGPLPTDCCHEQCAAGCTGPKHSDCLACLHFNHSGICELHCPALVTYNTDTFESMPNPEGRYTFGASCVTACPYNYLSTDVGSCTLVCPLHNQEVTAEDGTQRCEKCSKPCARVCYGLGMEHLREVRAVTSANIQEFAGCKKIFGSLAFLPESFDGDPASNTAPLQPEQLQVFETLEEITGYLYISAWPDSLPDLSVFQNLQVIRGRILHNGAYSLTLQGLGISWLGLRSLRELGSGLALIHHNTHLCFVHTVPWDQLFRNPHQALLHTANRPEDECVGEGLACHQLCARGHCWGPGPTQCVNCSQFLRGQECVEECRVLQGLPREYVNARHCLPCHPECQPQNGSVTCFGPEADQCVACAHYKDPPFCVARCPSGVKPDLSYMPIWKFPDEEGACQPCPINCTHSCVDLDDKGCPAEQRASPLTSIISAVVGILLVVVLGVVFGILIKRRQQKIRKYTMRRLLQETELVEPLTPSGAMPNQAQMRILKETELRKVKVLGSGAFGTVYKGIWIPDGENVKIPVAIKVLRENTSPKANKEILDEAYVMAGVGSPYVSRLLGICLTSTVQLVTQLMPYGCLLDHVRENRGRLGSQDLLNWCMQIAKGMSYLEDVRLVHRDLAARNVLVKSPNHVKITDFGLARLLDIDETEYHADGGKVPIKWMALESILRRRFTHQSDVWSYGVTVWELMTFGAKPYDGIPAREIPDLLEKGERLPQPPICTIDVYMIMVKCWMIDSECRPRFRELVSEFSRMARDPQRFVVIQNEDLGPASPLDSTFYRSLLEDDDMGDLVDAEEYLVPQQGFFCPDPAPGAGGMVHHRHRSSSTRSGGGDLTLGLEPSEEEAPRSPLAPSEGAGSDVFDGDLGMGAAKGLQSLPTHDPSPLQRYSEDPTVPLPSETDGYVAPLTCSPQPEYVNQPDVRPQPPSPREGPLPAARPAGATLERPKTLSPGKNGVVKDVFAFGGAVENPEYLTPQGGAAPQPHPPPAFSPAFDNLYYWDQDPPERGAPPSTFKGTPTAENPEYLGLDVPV
Experiment: ErbB enzyme assay (CisBio HTRF KinEASE-TK), Assay 2
Type: biochemical
Conditions: not given
Summary of the method: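 ErbB2 phosphorylates 250 nM biotin-TK substrate at 1 mM ATP in 25 mM HEPES pH 7.4, 10 mM MgCl2, 0.01% Triton X-100 and 2% DMSO, for 30 min at 22 °C. Product is detected by HTRF with Sa-XL665 and TK-Ab-Cryptate. Percent of control is set by DMSO-only wells and pre-quenched wells.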

SMILES	IC50 [nM]
Cc1cc(Nc2ncnc3cnc(N4CCC45COC5)nc23)ccc1Oc1ccn2ncnc2c1 [Example 369]	37.1
Cc1cc(Nc2ncnc3cnc(N4CC[C@H]4C(C)(C)O)nc23)ccc1Oc1ccn2ncnc2c1 [Example 370]	129
Cc1cc(Nc2ncnc3cnc(N4CCC[C@@H]4C(C)(C)O)nc23)ccc1Oc1ccc2c(c1)ncn2C [Example 371]	492
Cc1cc(Nc2ncnc3cnc(N(C)CC(F)F)nc23)ccc1Oc1ccn2ncnc2c1 [Example 372]	70.7
Cc1cc(Nc2ncnc3cnc(N4CC5(CCOC5)C4)nc23)ccc1Oc1ccn2ncnc2c1 [Example 373]	307
Cc1cc(Nc2ncnc3cnc(N4CC[C@]45CCOC5)nc23)ccc1Oc1ccn2ncnc2c1 [Example 374]	14.2
Cc1cc(Nc2ncnc3cnc(N4CC[C@]5(CCO5)C4)nc23)ccc1Oc1ccc2c(c1)ncn2C [Example 375]	34
Clc1cc(Nc2ncnc3cnc(N4CC[C@@H]5COC[C@H]54)nc23)ccc1Oc1ccn2ncnc2c1 [Example 376]	11.7
Clc1cc(Nc2ncnc3cnc(N4CCC5COCC54)nc23)ccc1Oc1ccn2ncnc2c1 (stereo not shown) [Example 377]	14.7
Cc1cc(Nc2ncnc3cnc(N4CCC4)nc23)ccc1Oc1ccn2ncnc2c1 [Example 379]	82.1
Cc1cc(Nc2ncnc3cnc(N4C[C@@H]5[C@H](C4)[C@H]4CC[C@@H]5O4)nc23)ccc1Oc1ccc2c(c1)ncn2C [Example 380]	64
Cc1cc(Nc2ncnc3cnc(N(C)[C@H]4CCOC4)nc23)ccc1Oc1ccn2ncnc2c1 [Example 381]	9.4
Cc1cc(Nc2ncnc3cnc(N4CCOC5CC54)nc23)ccc1Oc1ccn2ncnc2c1 (stereo not shown) [Example 382]	68.9
Clc1cc(Nc2ncnc3cnc(N4CC5CCC(C4)O5)nc23)ccc1Oc1ccn2ncnc2c1 [Example 383]	75.3

Target: EGFR wild type (EGFR WT) (Homo sapiens (Human), UniProt P00533)
Experiment: Cellular phosphorylation assay, EGF-stimulated EGFR phosphorylation in engineered NIH 3T3 cells, Phospho-EGFR DuoSet IC ELISA, Assay 5
Type: cell-based
Conditions: not given
Summary of the method: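 NIH 3T3 cells expressing EGFR WT (20,000/well, attached overnight) were exposed to serially diluted compound for 1 h at 37 °C, then stimulated with 100 ng/ml rEGF for 10 min. Phospho-EGFR in lysates measured by sandwich ELISA optical density; IC50 from curves.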

SMILES	IC50 [nM]
Cc1cc(Nc2ncnc3cnc(N4CCC45COC5)nc23)ccc1Oc1ccn2ncnc2c1 [Example 369]	≥ 5000
Cc1cc(Nc2ncnc3cnc(N4CC[C@H]4C(C)(C)O)nc23)ccc1Oc1ccn2ncnc2c1 [Example 370]	≥ 5000
Cc1cc(Nc2ncnc3cnc(N4CCC[C@@H]4C(C)(C)O)nc23)ccc1Oc1ccc2c(c1)ncn2C [Example 371]	≥ 5000
Cc1cc(Nc2ncnc3cnc(N(C)CC(F)F)nc23)ccc1Oc1ccn2ncnc2c1 [Example 372]	≥ 5000
Cc1cc(Nc2ncnc3cnc(N4CC5(CCOC5)C4)nc23)ccc1Oc1ccn2ncnc2c1 [Example 373]	≥ 5000
Cc1cc(Nc2ncnc3cnc(N4CC[C@]45CCOC5)nc23)ccc1Oc1ccn2ncnc2c1 [Example 374]	≥ 5000
Cc1cc(Nc2ncnc3cnc(N4CC[C@]5(CCO5)C4)nc23)ccc1Oc1ccc2c(c1)ncn2C [Example 375]	≥ 5000
Clc1cc(Nc2ncnc3cnc(N4CC[C@@H]5COC[C@H]54)nc23)ccc1Oc1ccn2ncnc2c1 [Example 376]	≥ 5000
Clc1cc(Nc2ncnc3cnc(N4CCC5COCC54)nc23)ccc1Oc1ccn2ncnc2c1 (stereo not shown) [Example 377]	≥ 5000
Cc1cc(Nc2ncnc3cnc(N4CCC4)nc23)ccc1Oc1ccn2ncnc2c1 [Example 379]	≥ 5000
Cc1cc(Nc2ncnc3cnc(N4C[C@@H]5[C@H](C4)[C@H]4CC[C@@H]5O4)nc23)ccc1Oc1ccc2c(c1)ncn2C [Example 380]	≥ 5000
Cc1cc(Nc2ncnc3cnc(N(C)[C@H]4CCOC4)nc23)ccc1Oc1ccn2ncnc2c1 [Example 381]	≥ 5000
Cc1cc(Nc2ncnc3cnc(N4CCOC5CC54)nc23)ccc1Oc1ccn2ncnc2c1 (stereo not shown) [Example 382]	≥ 5000
Clc1cc(Nc2ncnc3cnc(N4CC5CCC(C4)O5)nc23)ccc1Oc1ccn2ncnc2c1 [Example 383]	≥ 5000

Target: EGFR (Homo sapiens (Human), UniProt P00533)
Sequence (P00533 25-1210): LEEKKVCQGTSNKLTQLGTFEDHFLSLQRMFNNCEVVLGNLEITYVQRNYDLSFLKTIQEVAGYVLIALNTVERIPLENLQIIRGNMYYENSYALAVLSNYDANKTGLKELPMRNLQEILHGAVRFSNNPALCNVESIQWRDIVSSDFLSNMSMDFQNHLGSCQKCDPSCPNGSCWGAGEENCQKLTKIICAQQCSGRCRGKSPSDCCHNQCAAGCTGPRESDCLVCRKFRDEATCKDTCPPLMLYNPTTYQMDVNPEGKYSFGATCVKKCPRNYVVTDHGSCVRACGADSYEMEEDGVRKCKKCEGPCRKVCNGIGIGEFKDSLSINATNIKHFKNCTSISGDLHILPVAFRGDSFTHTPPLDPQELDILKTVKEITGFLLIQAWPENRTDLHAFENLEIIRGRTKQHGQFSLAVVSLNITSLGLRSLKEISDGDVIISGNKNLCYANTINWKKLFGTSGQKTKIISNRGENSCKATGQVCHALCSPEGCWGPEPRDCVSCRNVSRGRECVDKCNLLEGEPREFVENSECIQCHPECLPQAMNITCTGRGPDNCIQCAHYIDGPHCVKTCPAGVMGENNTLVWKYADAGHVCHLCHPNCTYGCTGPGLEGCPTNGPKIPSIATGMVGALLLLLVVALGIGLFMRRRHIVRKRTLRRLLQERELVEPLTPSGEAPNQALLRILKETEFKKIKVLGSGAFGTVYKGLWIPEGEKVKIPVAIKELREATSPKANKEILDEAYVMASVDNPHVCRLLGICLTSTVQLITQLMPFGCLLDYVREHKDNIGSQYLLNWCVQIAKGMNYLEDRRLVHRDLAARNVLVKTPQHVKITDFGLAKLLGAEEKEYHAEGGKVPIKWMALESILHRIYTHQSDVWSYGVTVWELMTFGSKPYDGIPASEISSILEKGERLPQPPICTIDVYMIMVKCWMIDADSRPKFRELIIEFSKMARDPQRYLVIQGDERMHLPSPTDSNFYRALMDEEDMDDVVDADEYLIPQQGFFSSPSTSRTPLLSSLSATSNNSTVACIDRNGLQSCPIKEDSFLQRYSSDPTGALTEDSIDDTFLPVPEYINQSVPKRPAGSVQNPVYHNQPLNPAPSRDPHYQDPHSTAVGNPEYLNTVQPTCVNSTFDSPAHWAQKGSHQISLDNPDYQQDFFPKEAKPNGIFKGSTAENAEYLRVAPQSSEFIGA
Experiment: ErbB enzyme assay (CisBio HTRF KinEASE-TK), Assay 3
Type: biochemical
Conditions: not given
Summary of the method: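 HTRF KinEASE-TK assay: kinase with 250 nM biotinylated TK-substrate and 1 mM ATP in 25 mM HEPES pH 7.4, 10 mM MgCl2, 0.01% Triton X-100, 2% DMSO, 30 min at 22 °C. Quenched with Sa-XL665/TK-Ab-Cryptate, read after 1 h. IC50 from 4-parameter fit of percent of control.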

SMILES	IC50 [nM]
Cc1cc(Nc2ncnc3cnc(N4CCC45COC5)nc23)ccc1Oc1ccn2ncnc2c1 [Example 369]	3870
Cc1cc(Nc2ncnc3cnc(N4CC[C@H]4C(C)(C)O)nc23)ccc1Oc1ccn2ncnc2c1 [Example 370]	≥ 10000
Cc1cc(Nc2ncnc3cnc(N4CCC[C@@H]4C(C)(C)O)nc23)ccc1Oc1ccc2c(c1)ncn2C [Example 371]	≥ 10000
Cc1cc(Nc2ncnc3cnc(N(C)CC(F)F)nc23)ccc1Oc1ccn2ncnc2c1 [Example 372]	7310
Cc1cc(Nc2ncnc3cnc(N4CC5(CCOC5)C4)nc23)ccc1Oc1ccn2ncnc2c1 [Example 373]	≥ 10000
Cc1cc(Nc2ncnc3cnc(N4CC[C@]45CCOC5)nc23)ccc1Oc1ccn2ncnc2c1 [Example 374]	1180
Cc1cc(Nc2ncnc3cnc(N4CC[C@]5(CCO5)C4)nc23)ccc1Oc1ccc2c(c1)ncn2C [Example 375]	≥ 10000
Clc1cc(Nc2ncnc3cnc(N4CC[C@@H]5COC[C@H]54)nc23)ccc1Oc1ccn2ncnc2c1 [Example 376]	1200
Clc1cc(Nc2ncnc3cnc(N4CCC5COCC54)nc23)ccc1Oc1ccn2ncnc2c1 (stereo not shown) [Example 377]	1410
Cc1cc(Nc2ncnc3cnc(N4CCC4)nc23)ccc1Oc1ccn2ncnc2c1 [Example 379]	≥ 10000
Cc1cc(Nc2ncnc3cnc(N4C[C@@H]5[C@H](C4)[C@H]4CC[C@@H]5O4)nc23)ccc1Oc1ccc2c(c1)ncn2C [Example 380]	≥ 10000
Cc1cc(Nc2ncnc3cnc(N(C)[C@H]4CCOC4)nc23)ccc1Oc1ccn2ncnc2c1 [Example 381]	5040
Cc1cc(Nc2ncnc3cnc(N4CCOC5CC54)nc23)ccc1Oc1ccn2ncnc2c1 (stereo not shown) [Example 382]	6010
Clc1cc(Nc2ncnc3cnc(N4CC5CCC(C4)O5)nc23)ccc1Oc1ccn2ncnc2c1 [Example 383]	≥ 10000
